Drawing on patent US11661422B2, “Tricyclic urea compounds as JAK2 V617F inhibitors” (Incyte Corporation, priority 2020, dated 2023), this text covers IC50 for eleven molecules.

Where a name gives a salt, the structure may show the parent alone. Some results are limits rather than exact numbers.

In test [1] the target is catalytic domain (JH1, amino acids 808-1132) of human JAK2 (Homo sapiens (Human), UniProt O60674). Briefly: JAK2 HTRF Enzyme Activity Assay. Type of test: biochemical. Particulars: JAK2 0.015 nM, ATP (30 μM or 1 mM), 60 minutes at 25° C. The procedure: Example D. JAK2 HTRF Enzyme Activity Assay
catalytic domain (JH1, amino acids 808-1132) of human JAK2, sequence (O60674 808-1132): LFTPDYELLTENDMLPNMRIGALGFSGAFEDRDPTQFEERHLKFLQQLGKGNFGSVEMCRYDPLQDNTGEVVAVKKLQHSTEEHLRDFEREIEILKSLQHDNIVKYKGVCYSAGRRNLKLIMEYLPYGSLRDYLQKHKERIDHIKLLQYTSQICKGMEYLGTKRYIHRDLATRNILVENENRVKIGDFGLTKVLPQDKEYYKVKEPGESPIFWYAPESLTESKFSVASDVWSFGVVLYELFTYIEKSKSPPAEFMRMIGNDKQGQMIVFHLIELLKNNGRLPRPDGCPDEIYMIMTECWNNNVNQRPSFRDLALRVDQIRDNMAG
JAK2 enzyme activity assays utilize catalytic domain (JH1, amino acids 808-1132) of human JAK2 expressed as N-terminal His-tagged protein in a baculovirus expression system (BPS Bioscience, Catalog #40450). The assays was conducted in black 384-well polystyrene plates in a final reaction volume of 20 μL. JAK2 (0.015 nM) was incubated with compounds (100 nL serially diluted in DMSO) in the presence of ATP (30 μM or 1 mM) and 500 nM Biotin-labeled […] (SEQ ID NO.: 1) peptide (BioSource International, custom synthesis) in assay buffer (50 mM Tris, pH=7.5, 10 mM MgCl2, 0.01% Brij-35, 0.1% BSA, 1 mM EGTA, 5% Glycerol and 5 mM DTT) for 60 minutes at 25° C. The reactions were stopped by the addition of 10 μL of detection buffer (50 mM Tris, pH 7.8, 0.5 mg/mL BSA, 150 mM NaCl), supplemented with EDTA, LANCE Eu-W1024 anti-phosphotyrosine (PY20), (PerkinElmer, Catalog #AD0067) and Streptavidin SureLight APC (PerkinElmer Catalog #CR130-100), for a final concentration of 15 mM, 1.5 nM and 75 nM, respectively. HTRF signals were read after 30 minutes incubation at room temperature on a PHERAstar FS plate reader (BMG LABTECH). Data was analyzed with IDBS XLfit and GraphPad Prism 5.0 software using a four parameter dose response curve to determine IC50 for each compound.
(Time-resolved FRET reads energy transfer from a long-lived donor to a nearby acceptor.)

For test [2], the target named is pseudo-kinase domain (JH2, amino-acids 536-812) of human V617F mutant JAK2 (Homo sapiens (Human), UniProt O60674, F794H/V617F/W659A/W777A). The experiment in a line: JAK2 LanthaScreen JH2-V617F Binding Assay. The note with it: JAK2 JH2-V617F 0.26 nM, 50 nM fluorescent tracer, 1 hour at 25° C.; read-out: JH2 BIND V617F IC50. The procedure:
The assay was conducted in black 384-well polystyrene plates in a final reaction volume of 20 μL. […] Non-specific binding was accessed in the presence of 2 mM ATP. After incubation for 1 hour at 25° C., LanthaScreen signals were read on a PHERAstar FS plate reader (BMG LABTECH). Data was analyzed with IDBS XLfit and GraphPad Prism 5.0 software using a four parameter dose response curve to determine IC50 for each compound.

Test [3] has as its target catalytic domain (JH1, amino acids 826-1132) of human JAK2 (Homo sapiens (Human), UniProt O60674). Briefly: JAK2 LanthaScreen JH1 Binding Assay. The note with it: JAK2 JH1 1.5 nM, 50 nM fluorescent tracer, 2 hours at 25° C.; read-out: JH1 BIND IC50. The procedure:
Example A. JAK2 LanthaScreen JH1 Binding Assay
(§1) JAK2 JH1 binding assay utilizes catalytic domain (JH1, amino acids 826-1132) of human JAK2 expressed as N-terminal FLAG-tagged, biotinylated protein in a baculovirus expression system (Carna Biosciences, Product #08-445-20N). The assay was conducted in black 384-well polystyrene plates in a final reaction volume of 20 μL. JAK2 JH1 (1.5 nM) was incubated with compounds (100 nL serially diluted in DMSO) in the presence of 50 nM Fluorescent JAK2-JH1 Tracer and 0.5 nM Streptavidin-Tb cryptate (Cisbio Part #610SATLB) in assay buffer (50 mM Tris, pH=7.5, 10 mM MgCl2, 0.01% Brij-35, 0.1% BSA, 1 mM EGTA, 5% Glycerol and 5 mM DTT). Non-specific binding was accessed in the presence of 2 mM ATP. After incubation for 2 hours at 25° C., LanthaScreen signals were read on a PHERAstar FS plate reader (BMG LABTECH). Data was analyzed with IDBS XLfit and GraphPad Prism 5.0 software using a four parameter dose response curve to determine IC50 for each compound.

In test [4] the target is pseudo-kinase domain (JH2, amino-acids 536-812) of human Wild Type JAK2 (Homo sapiens (Human), UniProt O60674, F794H/W659A/W777A). Briefly: JAK2 LanthaScreen JH2-WT Binding Assay. The note with it: JAK2 JH2-WT 0.145 nM, 50 nM fluorescent tracer, 1 hour at 25° C.; read-out: JH2 BIND WT IC50. How it is done:
Example B. JAK2 LanthaScreen JH2-WT Binding Assay
as §1, with “The” for “JAK2 JH1 binding assay utilizes catalytic domain (JH1, amino acids 826-1132) of human JAK2 expressed as N-terminal FLAG-tagged, biotinylated protein in a baculovirus expression system (Carna Biosciences, Product #08-445-20N). The”, “JH2-WT (0.145” for “JH1 (1.5”, “JAK2-JH2” for “JAK2-JH1”, “Tracer (MedChem Express Catalog #HY-102055)” for “Tracer”, “0.25” for “0.5”, “1 hour” for “2 hours”

pseudo-kinase domain (JH2, amino-acids 536-812) of human Wild Type JAK2, sequence (O60674 536-812 W659A/W777A/F794H): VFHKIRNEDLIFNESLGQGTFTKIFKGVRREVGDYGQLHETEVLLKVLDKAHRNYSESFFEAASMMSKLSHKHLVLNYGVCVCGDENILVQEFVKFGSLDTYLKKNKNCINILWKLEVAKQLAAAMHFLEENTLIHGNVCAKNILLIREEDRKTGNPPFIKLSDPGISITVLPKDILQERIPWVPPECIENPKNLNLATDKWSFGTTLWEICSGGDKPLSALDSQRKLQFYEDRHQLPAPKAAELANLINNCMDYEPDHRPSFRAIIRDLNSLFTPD
pseudo-kinase domain (JH2, amino-acids 536-812) of human V617F mutant JAK2, sequence (O60674 536-812 V617F/W659A/W777A/F794H): as the sequence (O60674 536-812 W659A/W777A/F794H) above, with V82F counted along it
catalytic domain (JH1, amino acids 826-1132) of human JAK2, sequence (O60674 826-1132): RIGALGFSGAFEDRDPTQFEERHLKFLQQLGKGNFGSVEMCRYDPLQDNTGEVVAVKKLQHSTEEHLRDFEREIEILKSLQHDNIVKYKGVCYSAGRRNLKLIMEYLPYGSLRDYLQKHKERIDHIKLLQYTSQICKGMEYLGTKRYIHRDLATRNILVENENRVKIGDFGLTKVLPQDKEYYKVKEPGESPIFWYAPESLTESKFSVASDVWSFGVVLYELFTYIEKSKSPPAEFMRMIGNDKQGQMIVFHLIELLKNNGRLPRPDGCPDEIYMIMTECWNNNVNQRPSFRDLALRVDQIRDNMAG

In general, IC50 refers to the concentration that gives 50% inhibition. As for `CC(C(N)=O)n1cc(-c2ccc(-c3c(-c4ccc(CN5CCC(S(C)(=O)=O)CC5)cc4)[nH]c4ncc5c(c34)CN(C(C)(C)C)C(=O)N5C)cc2)cn1` (racemic) [Example 19, 2-(4-(4-(2-(tert-Butyl)-4-methyl-8-(4-((4-(methylsulfonyl)piperidin-1-yl)methyl)phenyl)-3-oxo-2,3,4,7-tetrahydro-1H-pyrrolo[3′,2′:5,6]pyrido[3,4-d]pyrimidin-9-yl)phenyl)-1H-pyrazol-1-yl)propanamide Trifluoroacetic Acid Salt], the concentration for half-maximal inhibition (IC50) in test [1], in test [2], in test [3] and in test [4] was no more than 100 nM each time.
As to `CC1c2c(cnc3[nH]c(-c4ccc(CN5CCC(S(C)(=O)=O)CC5)cc4)cc23)N(C)C(=O)N1c1ccc(C(=O)O)cc1` (racemic) [Example 10, 4-(1,4-Dimethyl-8-(4-((4-(methylsulfonyl)piperidin-1-yl)methyl)phenyl)-3-oxo-1,3,4,7-tetrahydro-2H-pyrrolo[3′,2′:5,6]pyrido[3,4-d]pyrimidin-2-yl)benzoic Acid], the IC50 in test [1] is 1000 to 2500 nM; in test [2] it was 100 to 500 nM; in test [3], 1000 to 2500 nM; in test [4] it was no more than 100 nM.
In the case of `CN1C(=O)N(c2ccc(C(=O)O)cc2)Cc2c1cnc1[nH]c(-c3ccc(CN4CCC(S(C)(=O)=O)CC4)cc3)c(C3CC3)c21` [Example 23, 4-(9-Cyclopropyl-4-methyl-8-(4-((4-(methylsulfonyl)piperidin-1-yl)methyl)phenyl)-3-oxo-1,3,4,7-tetrahydro-2H-pyrrolo[3′,2′:5,6]pyrido[3,4-d]pyrimidin-2-yl)benzoic acid, trifluoroacetic acid salt], the half-inhibitory concentration (IC50) in test [1] is greater than 2500 nM; in test [2], no more than 100 nM; in test [3] it was greater than 2500 nM; in test [4], no more than 100 nM.
`CN1C(=O)N(c2ccc(NC(=O)CC#N)cc2)Cc2c1cnc1[nH]c(-c3ccc(CN4CCC(S(C)(=O)=O)CC4)cc3)cc21` [Example 9, 2-Cyano-N-(4-(4-methyl-8-(4-((4-(methylsulfonyl)piperidin-1-yl)methyl)phenyl)-3-oxo-1,3,4,7-tetrahydro-2H-pyrrolo[3′,2′:5,6]pyrido[3,4-d]pyrimidin-2-yl)phenyl)acetamide]: the IC50 in test [1], in test [2], in test [3] and in test [4] was 100 to 500 nM in each case.
Turning to `CN1C(=O)N(c2ccc(C(=O)O)cc2)Cc2c1cnc1[nH]c(-c3ccc(CN4CCC(S(C)(=O)=O)CC4)cc3)c(C#N)c21` [Example 24, 4-(9-Cyano-4-methyl-8-(4-((4-(methylsulfonyl)piperidin-1-yl)methyl)phenyl)-3-oxo-1,3,4,7-tetrahydro-2H-pyrrolo[3′,2′:5,6]pyrido[3,4-d]pyrimidin-2-yl)benzoic acid Trifluoroacetic Acid Salt], the half-inhibitory concentration (IC50) in test [1] is greater than 2500 nM; in test [2], 100 to 500 nM; in test [3], greater than 2500 nM; in test [4], 100 to 500 nM.
Turning to `COC(=O)c1c(-c2ccc(CN3CCC(S(C)(=O)=O)CC3)cc2)[nH]c2ncc3c(c12)CN(c1ccc(C(=O)O)cc1)C(=O)N3C` [Example 15, 4-(9-(Methoxycarbonyl)-4-methyl-8-(4-((4-(methylsulfonyl)piperidin-1-yl)methyl)phenyl)-3-oxo-1,3,4,7-tetrahydro-2H-pyrrolo[3′,2′:5,6]pyrido[3,4-d]pyrimidin-2-yl)benzoic acid Trifluoroacetic Acid Salt], the IC50 is greater than 2500 nM in test [1], 100 to 500 nM in test [2], greater than 2500 nM in test [3] and 100 to 500 nM in test [4].
For `CS(=O)(=O)C1CCN(Cc2ccc(-c3cc4c5c(cnc4[nH]3)NC(=O)N(C3CCN(S(N)(=O)=O)CC3)C5)cc2)CC1` [Example 7, 4-(8-(4-((4-(methylsulfonyl)piperidin-1-yl)methyl)phenyl)-3-oxo-1,3,4,7-tetrahydro-2H-pyrrolo[3′,2′:5,6]pyrido[3,4-d]pyrimidin-2-yl)piperidine-1-sulfonamide], the IC50 in test [1] was no more than 100 nM; in test [2], 1000 to 2500 nM; in test [3], no more than 100 nM; in test [4] it was 500 to 1000 nM.
For `CC(=O)NCc1ccc(-c2c(-c3ccc(CN4CCC(S(C)(=O)=O)CC4)cc3)[nH]c3ncc4c(c23)CN(C(C)(C)C)C(=O)N4C)cc1` [Example 16, N-(4-(2-(tert-Butyl)-4-methyl-8-(4-((4-(methylsulfonyl)piperidin-1-yl)methyl)phenyl)-3-oxo-2,3,4,7-tetrahydro-1H-pyrrolo[3′,2′:5,6]pyrido[3,4-d]pyrimidin-9-yl)benzyl)acetamide], the IC50 in test [1], in test [2], in test [3] and in test [4] was no more than 100 nM throughout.
For the molecule `CNC(=O)c1ccc(N2Cc3c(cnc4[nH]c(-c5ccc(CN6CCC(S(C)(=O)=O)CC6)cc5)c(-c5ccc(OC)cc5)c34)N(C)C2=O)cc1` [Example 12, 4-(9-(4-methoxyphenyl)-4-methyl-8-(4-((4-(methylsulfonyl)piperidin-1-yl)methyl)phenyl)-3-oxo-1,3,4,7-tetrahydro-2H-pyrrolo[3′,2′:5,6]pyrido[3,4-d]pyrimidin-2-yl)-N-methylbenzamide, trifluroacetate], the half-inhibitory concentration (IC50) in test [1] was 1000 to 2500 nM; in test [2], no more than 100 nM; in test [3], 1000 to 2500 nM; in test [4], no more than 100 nM.
Take `COc1ccc(-c2c(C3CC3)[nH]c3ncc4c(c23)CN(c2ccc(C(=O)O)cc2)C(=O)N4C)cc1` [Example 26, 4-(8-Cyclopropyl-9-(4-methoxyphenyl)-4-methyl-3-oxo-1,3,4,7-tetrahydro-2H-pyrrolo[3′,2′:5,6]pyrido[3,4-d]pyrimidin-2-yl)benzoic acid]: the half-inhibitory concentration (IC50) in test [1] was greater than 2500 nM; in test [2], 100 to 500 nM; in test [3] it was greater than 2500 nM; in test [4], 100 to 500 nM.
For the molecule `CNS(=O)(=O)c1ccc(-c2c(-c3ccc(CN4CCC(S(C)(=O)=O)CC4)cc3)[nH]c3ncc4c(c23)CN(C(C)(C)C)C(=O)N4C)cc1` [Example 17, 4-(2-(tert-Butyl)-4-methyl-8-(4-((4-(methylsulfonyl)piperidin-1-yl)methyl)phenyl)-3-oxo-2,3,4,7-tetrahydro-1H-pyrrolo[3′,2′:5,6]pyrido[3,4-d]pyrimidin-9-yl)-N-methylbenzenesulfonamide, trifluoroacetic acid salt], the IC50 in test [1], in test [2], in test [3] and in test [4] was no more than 100 nM in each case.
